According to the supplement of paper PMC10307832:

Tests used:
Assay in all cases: relative viability (nuclei count vs DMSO), 5 days (fraction); higher = more cells survive
NCI-H2009 = test system: NCI-H2009
Summary of the method: (§1)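 Lung cancer cell lines were pin-tool dosed in 1536-well plates on the day after seeding, with either a lone drug or a fixed anchor-drug dose plus five library-drug doses (not always all listed) in √10 steps. Nuclei were counted on 4× images after 5 days. Relative viability is the ratio of treated-well to vehicle-well nuclei counts, with each value a median of duplicate plates.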

LXF-289 = test system: LXF-289
Summary of the method: as §1

NCI-H2126 = test system: NCI-H2126
Summary of the method: as §1

COR-L 105 = test system: COR-L 105
Summary of the method: as §1

PC-3 [JPC-3] = test system: PC-3 [JPC-3]
Summary of the method: as §1

HARA = test system: HARA
Summary of the method: as §1

COR-L23 = test system: COR-L23
Summary of the method: as §1

HOP-62 = test system: HOP-62
Summary of the method: as §1

HCC-366 = test system: HCC-366
Summary of the method: as §1

HCC-827 = test system: HCC-827
Summary of the method: as §1

SK-MES-1 = test system: SK-MES-1
Summary of the method: as §1

PC-14 = test system: PC-14
Summary of the method: as §1

NCI-H2087 = test system: NCI-H2087
Summary of the method: as §1

HCC-15 = test system: HCC-15
Summary of the method: as §1

LU99A = test system: LU99A
Summary of the method: as §1

HCC-44 = test system: HCC-44
Summary of the method: as §1

CAL-12T = test system: CAL-12T
Summary of the method: as §1

LC-2-ad = test system: LC-2-ad
Summary of the method: as §1

NCI-H1993 = test system: NCI-H1993
Summary of the method: as §1

NCI-H2170 = test system: NCI-H2170
Summary of the method: as §1

LCLC-97TM1 = test system: LCLC-97TM1
Summary of the method: as §1

COCC1(CO)C(=O)C2CCN1CC2 (configuration not stated) [PRIMA-1MET] + CS(=O)(=O)N1CCN(Cc2cc3nc(-c4cccc5[nH]ncc45)nc(N4CCOCC4)c3s2)CC1 [Pictilisib] (partner 1 µM)
relative viability (NCI-H2009; first compound 0.2 µM): 0.337 | relative viability (NCI-H2009; first compound 0.6325 µM): 0.68 | relative viability (NCI-H2009; first compound 2 µM): 0.506 | relative viability (NCI-H2009; first compound 6.325 µM): 0.513 | relative viability (NCI-H2009; first compound 20 µM): 0.0085 | relative viability (LXF-289; first compound 0.2 µM): 0.691 | relative viability (LXF-289; first compound 0.6325 µM): 0.743 | relative viability (LXF-289; first compound 2 µM): 0.531 | relative viability (LXF-289; first compound 6.325 µM): 0.717 | relative viability (LXF-289; first compound 20 µM): 0.761 | relative viability (NCI-H2126; first compound 0.2 µM): 0.459 | relative viability (NCI-H2126; first compound 0.6325 µM): 0.485 | relative viability (NCI-H2126; first compound 2 µM): 0.418 | relative viability (NCI-H2126; first compound 6.325 µM): 0.548 | relative viability (NCI-H2126; first compound 20 µM): 0.488 | relative viability (COR-L 105; first compound 0.2 µM): 0.387 | relative viability (COR-L 105; first compound 0.6325 µM): 0.346 | relative viability (COR-L 105; first compound 2 µM): 0.324 | relative viability (COR-L 105; first compound 6.325 µM): 0.245 | relative viability (COR-L 105; first compound 20 µM): 0.2 | relative viability (PC-3 [JPC-3]; first compound 0.2 µM): 0.681 | relative viability (PC-3 [JPC-3]; first compound 0.6325 µM): 0.653 | relative viability (PC-3 [JPC-3]; first compound 2 µM): 0.652 | relative viability (PC-3 [JPC-3]; first compound 6.325 µM): 0.777 | relative viability (PC-3 [JPC-3]; first compound 20 µM): 0.688 | relative viability (HARA; first compound 0.2 µM): 0.374 | relative viability (HARA; first compound 0.6325 µM): 0.417 | relative viability (HARA; first compound 6.325 µM): 0.446 | relative viability (HARA; first compound 20 µM): 0.403 | relative viability (COR-L23; first compound 0.2 µM): 0.77 | relative viability (COR-L23; first compound 0.6325 µM): 0.76 | relative viability (COR-L23; first compound 2 µM): 0.765 | relative viability (COR-L23; first compound 6.325 µM): 0.786 | relative viability (COR-L23; first compound 20 µM): 0.0196 | relative viability (HOP-62; first compound 0.2 µM): 0.442 | relative viability (HOP-62; first compound 0.6325 µM): 0.465 | relative viability (HOP-62; first compound 2 µM): 0.368 | relative viability (HOP-62; first compound 6.325 µM): 0.734 | relative viability (HOP-62; first compound 20 µM): 0.392 | relative viability (HCC-366; first compound 0.2 µM): 0.204 | relative viability (HCC-366; first compound 0.6325 µM): 0.118 | relative viability (HCC-366; first compound 6.325 µM): 0.123 | relative viability (HCC-366; first compound 20 µM): 0.0846 | relative viability (HCC-827; first compound 0.2 µM): 1.33 | relative viability (HCC-827; first compound 0.6325 µM): 0.907 | relative viability (HCC-827; first compound 2 µM): 0.863 | relative viability (HCC-827; first compound 6.325 µM): 1.08 | relative viability (HCC-827; first compound 20 µM): 0.81 | relative viability (SK-MES-1; first compound 0.2 µM): 0.449 | relative viability (SK-MES-1; first compound 0.6325 µM): 0.384 | relative viability (SK-MES-1; first compound 2 µM): 0.359 | relative viability (SK-MES-1; first compound 6.325 µM): 0.381 | relative viability (SK-MES-1; first compound 20 µM): 0.349 | relative viability (PC-14; first compound 0.2 µM): 0.813 | relative viability (PC-14; first compound 0.6325 µM): 0.724 | relative viability (PC-14; first compound 2 µM): 0.692 | relative viability (PC-14; first compound 6.325 µM): 0.797 | relative viability (PC-14; first compound 20 µM): 0.401 | relative viability (NCI-H2087; first compound 0.2 µM): 0.413 | relative viability (NCI-H2087; first compound 0.6325 µM): 0.848 | relative viability (NCI-H2087; first compound 2 µM): 0.966 | relative viability (NCI-H2087; first compound 6.325 µM): 0.642 | relative viability (NCI-H2087; first compound 20 µM): 0.659 | relative viability (HCC-15; first compound 0.2 µM): 0.511 | relative viability (HCC-15; first compound 0.6325 µM): 0.582 | relative viability (HCC-15; first compound 2 µM): 0.568 | relative viability (HCC-15; first compound 6.325 µM): 0.638 | relative viability (HCC-15; first compound 20 µM): 0.618 | relative viability (LU99A; first compound 0.2 µM): 0.414 | relative viability (LU99A; first compound 0.6325 µM): 0.323 | relative viability (LU99A; first compound 2 µM): 0.386 | relative viability (LU99A; first compound 6.325 µM): 0.308 | relative viability (LU99A; first compound 20 µM): 0.154 | relative viability (HCC-44; first compound 0.2 µM): 0.569 | relative viability (HCC-44; first compound 0.6325 µM): 0.414 | relative viability (HCC-44; first compound 2 µM): 0.426 | relative viability (HCC-44; first compound 6.325 µM): 0.651 | relative viability (HCC-44; first compound 20 µM): 0.611 | relative viability (CAL-12T; first compound 0.2 µM): 0.486 | relative viability (CAL-12T; first compound 0.6325 µM): 0.421 | relative viability (CAL-12T; first compound 2 µM): 0.315 | relative viability (CAL-12T; first compound 6.325 µM): 0.332 | relative viability (CAL-12T; first compound 20 µM): 0.0828 | relative viability (LC-2-ad; first compound 0.2 µM): 0.933 | relative viability (LC-2-ad; first compound 0.6325 µM): 0.445 | relative viability (LC-2-ad; first compound 2 µM): 0.321 | relative viability (LC-2-ad; first compound 6.325 µM): 0.468 | relative viability (LC-2-ad; first compound 20 µM): 0.421 | relative viability (NCI-H1993; first compound 0.2 µM): 0.949 | relative viability (NCI-H1993; first compound 0.6325 µM): 0.797 | relative viability (NCI-H1993; first compound 2 µM): 0.732 | relative viability (NCI-H1993; first compound 6.325 µM): 0.873 | relative viability (NCI-H1993; first compound 20 µM): 0.854 | relative viability (NCI-H2170; first compound 0.2 µM): 0.312 | relative viability (NCI-H2170; first compound 0.6325 µM): 0.276 | relative viability (NCI-H2170; first compound 2 µM): 0.283 | relative viability (NCI-H2170; first compound 6.325 µM): 0.336 | relative viability (NCI-H2170; first compound 20 µM): 0.297 | relative viability (LCLC-97TM1; first compound 0.2 µM): 0.127 | relative viability (LCLC-97TM1; first compound 2 µM): 0.234 | relative viability (LCLC-97TM1; first compound 6.325 µM): 0.135 | relative viability (LCLC-97TM1; first compound 20 µM): 0.117
